Data taken from patent publication US8232070B2, “DNP63A gene and screening methods of anticancer agent by using it” (Seoul National University Industry Foundation, priority 2007, dated 2012).
Peptide text beside a SMILES is read from it. * marks the point of attachment. Cbz = O=C(OCc1ccccc1)*

What was measured:
[1] = tested on: ΔNp63α; assay: ΔNp63α protein amount and stability in ME180 carcinoma cells after TNF-α treatment (cyclohexamide chase, FIG. 1); format: cell-based
Procedure: After TNF-α treatment for 16 hours, cyclohexamide which inhibit protein synthesis was added and the samples were obtained at the indicated time-points and observed for changes of protein stability. As a result, the protein degradation began after 4 hours of treatment with cyclohexamide.
Previously, ME180, ΔNp63α overexpressing carcinoma, was treated with TNF-α (tumor necrosis factor-alpha) which induces cell death. Also, the changes of the amount of ΔNp63α protein were observed. […] It is identified that such degradation of ΔNp63α was proceeded by specific mechanism, that is, by proteasome-mediated mechanism (FIG. 1). Protein degradation pathways could be usually classified in large into two groups, the first one is a degradation pathway by a protease after its polyubiquitination and movement to proteases, and the other one is a degradation pathway by a caspases.

[2] = tested on: ΔNp63α; assay: Intracellular location of GFP-fused ΔNp63α in transformed ME180 cells, fluorescence microscopy (FIG. 2); format: cell-based; conditions: ME180 transformed with pEGFP-ΔNp63α
Text: The recombinant vector constructed by the present inventor had fused ΔNp63α next to pEGFP-C1. The advantage of GFP is to observe easily in microscopy because GFP emit the green light at the specific absorbance (Excitation maximum=488 nm; emission maximum=507 nm). […] GFP is inherently expressed all over the area of cell, however, it was identified that GFP expression was observed only in the nucleus after GFP fused with ΔNp63α.
As a signal of cell death induction, the intracellular location and expression patterns of ΔNp63α were observed. In detail, it was observed variation aspect and cell location of ΔNp63α with a time span, 0 hr, 1 hr, 2 hr and 4 hr with fluorescence microscope, after cloning ΔNp63α gene into the vector expressing Green Fluorescence Protein (GFP), expressing for a certain time by transformation into carcinoma cell, treating TNF-α which induce cell death, carcinoma cells being transformed and then the protein being expressed for a certain time. As a result, it was observed similar aspect of aggreasome, which looks like complex of preteasome, because ΔNp63α, which had been known to locate only in nucleus, moved from nucleus to cytoplasm about 2 hr after treatment of TNF-α (FIG. 2). […]

Row | Compound | amount of ΔNp63α protein after treatment ([1]; ME180 cells, ΔNp63α overexpressing carcinoma) | time at which ΔNp63α protein degradation began after addition of cyclohexamide ([1]; TNF-α treatment for 16 hours, then cyclohexamide added) [h] | change of ΔNp63α protein location after treatment [2] | time at which ΔNp63α moved from nucleus to cytoplasm after treatment ([2]; observed at 0 hr, 1 hr, 2 hr and 4 hr) | ΔNp63α protein degradation with proteasome inhibitor co-treatment ([1]; MG132 20 nM together with cyclohexamide after TNF-α treatment for 16 hours)
1 | TNF-α | decreased rapidly | 4 | from the nucleus to the cytoplasm | about 2 hr | –
2 | CC(C)C[C@@H](C=O)NC(=O)[C@H](CC(C)C)NC(=O)[C@H](CC(C)C)NC(=O)OCc1ccccc1 [MG132, reference compound] (Cbz-Leu-Leu-Leu-aldehyde) | – | – | – | – | wasn't degraded and stabilized even after 4 hours
